# Results published in US9457007B2, “Prenylflavanone compounds for modulating diabetes” (NATUREWISE BIOTECH & MEDICALS CORPORATION, priority 2013, dated 2016).
# Entries after “also recorded” stand apart in the source; their conditions may differ.
# Columns and labels:
# Assay type in all cases: in vivo
# [1] = tested on: STZ-induced diabetic mice; assay: Blood glucose in the STZ-induced diabetic mice; details: propolins study; for modulation of blood glucose: 8 weeks, dose 1.2-2.4% of the Januvia dose
# Description: The male FBV mice of 5 weeks old, commercially available from BioLASCO Co., Ilan, Taiwan, were acclimatized for 1 week, prior to administration of streptozotocin (STZ) at 40 mg/kg for 3 consecutive days. STZ was formulated with an aqueous solution of sodium citrate (pH 4.5, 73.5 mg/5 mL) on ice, and then 100 μL of the formulation was dosed by intraperitoneal injection. From day 2 in the 3 consecutive days, the mice were dosed with 5% (w/v) glucose water for 6 consecutive days. After allowing the mice to rest for 10 days, blood glucose levels were measured. After administration of STZ for 1 week, about 5 μL of blood was collected from each of the mice at the tail vein, and was assayed for blood glucose by a blood glucose monitor and chip (FORA, California, U.S.A.). After 1 week, blood glucose was detected once more, and whether blood glucose was smooth or not was evaluated prior to grouping. The values of blood glucose in all of the mice induced to suffer from diabetes were brought to fall within about 300±50 mg/dL. […]
# (§1) An appropriate amount of propolins and its relevant derivatives, such as PPA, PPB, PPC, PPD, PPE, PPF, PPG, PPH, PPI or PPJ, was dissolved with 3 ml 95% alcohol and then uniformly mixed with 80 μL Tween 80; after concentrating under reduced pressure for removal of alcohol, it was uniformly dispersed into 16 ml water to give a liquid mixture of propolins. This mixture was fed by 200 μL gavage into the diabetic mice designated as the propolins and its relevant derivative group.
# (§2) Sitagliptin (trade name: Januvia), commercially available from American Merck Co., was used as the DPP4 inhibitor. An appropriate amount of sitagliptin was dissolved in water to provide a final concentration allowing administration of the mice at a dose of 370 mg/kg. In the following example, Januvia was representative of the DPP4 inhibitors and acted as a positive control group for reference.
# (§3) Tween 80 (80 μL) was mixed into 16 ml water to give a placebo, which was fed by 200 μL gavage into the STZ-induced diabetic mice or normal mice (i.e., the mice without induction for diabetes). Oral gavage was carried out once at a fixed time each day, and weight, feedstuff intake and water intake were measured weekly until tests were finished at 12-13 weeks.
# [2] = tested on: STZ-induced diabetic mice; assay: Oral glucose tolerance test (OGTT); design: reduction of AUC compared with the STZ group / extent of reduction of AUC compared with the STZ group: concentration or dose not given beside the values; details: propolins study; for AUC value for blood glucose (integral area) / extent of reduction of AUC compared with the STZ group: OGTT
# Description: (§4) The male FBV mice of 5 weeks old, commercially available from BioLASCO Co., Ilan, Taiwan, were acclimatized for 1 week, prior to administration of streptozotocin (STZ) at 40 mg/kg for 3 consecutive days. STZ was formulated with an aqueous solution of sodium citrate (pH 4.5, 73.5 mg/5 mL) on ice, and then 100 μL of the formulation was dosed by intraperitoneal injection. From day 2 in the 3 consecutive days, the mice were dosed with 5% (w/v) glucose water for 6 consecutive days. After allowing the mice to rest for 10 days, blood glucose levels were measured. After administration of STZ for 1 week, about 5 μL of blood was collected from each of the mice at the tail vein, and was assayed for blood glucose by a blood glucose monitor and chip (FORA, California, U.S.A.). After 1 week, blood glucose was detected once more, and whether blood glucose was smooth or not was evaluated prior to grouping. The values of blood glucose in all of the mice induced to suffer from diabetes were brought to fall within about 300±50 mg/dL.
# After administration of the testing substance to the animals for 12 weeks, the OGTT test was performed for evaluation of secretion and effects of insulin. All of the mice in the test were administered with the testing substance and then fasted for 4 hours prior to blood sampling at the first point called point 0. Afterwards, the mice were fed by oral gavage with 200 μL glucose in water, equivalent to a dose of 1.0 g/kg. After administration, blood was collected for an assay of blood glucose at 15, 30, 60, 120 and 180 minutes, respectively. Therefore, a total of 6 points, including points at 0, 15, 30, 60, 120 and 180 minutes, were obtained. About 5 μL of blood was collected from each of the mice at the tail vein and was then assayed for blood glucose by the blood glucose monitor and chip (FORA, California, U.S.A.). The blood glucose values at the Y-axis were plotted against the time points at the X-axis. Each group was calculated for an area under curve for comparison. The efficacy in regulation of blood glucose was evaluated by the area showing a relationship between the testing substance and secretion and effects of insulin.
# [3] = tested on: STZ-induced diabetic mice; assay: Water intake of the diabetic mice; details: propolins study
# Description: as §4
# (§5) An appropriate amount of the Taiwan Green Propolis alcohol extract was dissolved with 3 ml 95% alcohol and then uniformly mixed with 80 μL Tween 80 as a cosolvent; after concentrating under reduced pressure for removal of alcohol, it was dispersed into 16 ml water to give a liquid mixture of the Taiwan Green Propolis extract. This mixture was fed by 200 μL gavage into the diabetic mice designated as the Taiwan Green Propolis extract group.
# as §1, §2, §3
# [4] = tested on: STZ-induced diabetic mice; assay: Feedstuff intake of the diabetic mice; details: propolins study
# Description: as §4, §5, §1, §2, §3
# [5] = after administration for 8 weeks by gavage daily, PPC 9.0, PPD 6.75, PPF 4.5, PPG 4.5, Januvia 370 mg/kg/mouse
# [6] = 0 point, PPC 9.0, PPD 6.75, PPF 4.5, PPG 4.5, DPP4I 370 mg/kg/mouse
# [7] = 30-minute time point after glucose in water
compound,measurement,setting,value
"CC(C)=CCC/C(C)=C/Cc1c([C@@H]2CC(=O)c3c(cc(O)c(CC=C(C)C)c3O)O2)ccc(O)c1O [PPG, (S,E)-2-(2-(3,7-dimethylocta-2,6-dien-1-yl)-3,4-dihydroxyphenyl)-5,7-dihydroxy-6-(3-methylbut-2-en-1-yl)-3,4-dihydro-2H-1-benzopyran-4-one]",modulation of blood glucose,[1],higher activity for modulation of blood glucose than DPP4I; also recorded: the most effective compound for modulating blood glucose
same,blood glucose,[1]; [5],298 mg/dL
same,blood glucose,[1]; at 0 week,330 mg/dL
same,value of blood glucose in glucose tolerance test,[2]; [6],about 385 mg/dL
same,value of blood glucose in glucose tolerance test,[2]; [7],about 525 mg/dL
same,value of blood glucose in glucose tolerance test,[2]; 120-minute time point,about 380 mg/dL
same,value of blood glucose in glucose tolerance test,[2]; 180-minute time point,350 mg/dL
same,AUC value for blood glucose (integral area),[2],about 7.8×10^4
same,extent of reduction of AUC compared with the STZ group,[2],31.7%
same,efficacy in glucose tolerance test,[2]; compared to the STZ group,more excellent efficacy
same,water intake,[3]; at 1 week,6.5 mL/mouse
same,water intake,[3]; at 6 weeks,9.0 mL/mouse
same,water intake,[3]; at 8 weeks,9.0 mL/mouse
same,effect on feedstuff intake,[4],significantly inhibited feedstuff intake
same,feedstuff intake,[4]; at 1 week,4.8 g/mouse
same,feedstuff intake,[4]; at 6 weeks,7.0 g/mouse
same,feedstuff intake,[4]; at 8 weeks,7.2 g/mouse
"CC(C)=CCC/C(C)=C/Cc1c([C@@H]2CC(=O)c3c(O)cc(O)cc3O2)ccc(O)c1O [PPD, (S,E)-2-(2-(3,7-dimethylocta-2,6-dien-1-yl)-3,4-dihydroxyphenyl)-5,7-dihydroxy-3,4-dihydro-2H-1-benzopyran-4-one]",modulation of blood glucose,[1],highly effectively modulated
same,blood glucose,[1]; [5],400 mg/dL
same,blood glucose,[1]; at 0 week,330 mg/dL
same,value of blood glucose in glucose tolerance test,[2]; [6],about 380 mg/dL
same,value of blood glucose in glucose tolerance test,[2]; [7],about 530 mg/dL
same,value of blood glucose in glucose tolerance test,[2]; 120-minute time point,about 490 mg/dL
same,value of blood glucose in glucose tolerance test,[2]; 180-minute time point,460 mg/dL
same,AUC value for blood glucose (integral area),[2],about 8.7×10^4
same,extent of reduction of AUC compared with the STZ group,[2],16.2%
same,effect on water intake,[3],significantly inhibited water intake
same,water intake,[3]; at 1 week,8.0 mL/mouse
same,water intake,[3]; at 6 weeks,14.0 mL/mouse
same,water intake,[3]; at 8 weeks,16.0 mL/mouse
same,effect on feedstuff intake,[4],significantly inhibited feedstuff intake
same,feedstuff intake,[4]; at 1 week,7.2 g/mouse
same,feedstuff intake,[4]; at 6 weeks,7.2 g/mouse
same,feedstuff intake,[4]; at 8 weeks,7.2 g/mouse
"CC(C)=CCC/C(C)=C/Cc1cc([C@@H]2CC(=O)c3c(O)cc(O)cc3O2)cc(O)c1O [PPF, (S,E)-2-(3-(3,7-dimethylocta-2,6-dien-1-yl)-4,5-dihydroxyphenyl)-5,7-dihydroxy-3,4-dihydro-2H-1-benzopyran-4-one]",modulation of blood glucose,[1],effectively highly modulated
same,blood glucose,[1]; [5],398 mg/dL
same,blood glucose,[1]; at 0 week,330 mg/dL
same,value of blood glucose in glucose tolerance test,[2]; [6],about 390 mg/dL
same,value of blood glucose in glucose tolerance test,[2]; [7],about 525 mg/dL
same,value of blood glucose in glucose tolerance test,[2]; 120-minute time point,about 420 mg/dL
same,value of blood glucose in glucose tolerance test,[2]; 180-minute time point,430 mg/dL
same,AUC value for blood glucose (integral area),[2],about 8.2×10^4
same,extent of reduction of AUC compared with the STZ group,[2],15.0%
same,water intake,[3]; at 1 week,8.0 mL/mouse
same,water intake,[3]; at 6 weeks,13.0 mL/mouse
same,water intake,[3]; at 8 weeks,10.0 mL/mouse
same,effect on feedstuff intake,[4],significantly inhibited feedstuff intake
same,feedstuff intake,[4]; at 1 week,6.3 g/mouse
same,feedstuff intake,[4]; at 6 weeks,7.0 g/mouse
same,feedstuff intake,[4]; at 8 weeks,6.3 g/mouse
"CC(C)=CCC/C(C)=C/Cc1c(O)cc2c(c1O)C(=O)C[C@@H](c1ccc(O)c(O)c1)O2 [PPC, (S,E)-2-(3,4-dihydroxyphenyl)-6-(3,7-dimethylocta-2,6-dien-1-yl)-5,7-dihydroxy-3,4-dihydro-2H-1-benzopyran-4-one]",modulation of blood glucose,[1],highly effectively modulated
same,blood glucose,[1]; [5],298 mg/dL
same,blood glucose,[1]; at 0 week,330 mg/dL
same,value of blood glucose in glucose tolerance test,[2]; [6],about 350 mg/dL
same,value of blood glucose in glucose tolerance test,[2]; [7],about 450 mg/dL
same,value of blood glucose in glucose tolerance test,[2]; 120-minute time point,about 430 mg/dL
same,value of blood glucose in glucose tolerance test,[2]; 180-minute time point,400 mg/dL
same,AUC value for blood glucose (integral area),[2],about 8.0×10^4
same,extent of reduction of AUC compared with the STZ group,[2],28.2%
same,effect on water intake,[3],significantly inhibited water intake
same,water intake,[3]; at 1 week,8.2 mL/mouse
same,water intake,[3]; at 6 weeks,16.0 mL/mouse
same,water intake,[3]; at 8 weeks,24.0 mL/mouse
same,effect on feedstuff intake,[4],significantly inhibited feedstuff intake
same,feedstuff intake,[4]; at 1 week,7.2 g/mouse
same,feedstuff intake,[4]; at 6 weeks,8.0 g/mouse
same,feedstuff intake,[4]; at 8 weeks,7.9 g/mouse
